The source of these data is US20230295201A1 (Gilead Sciences, Inc., priority 2020, published 2023).

Type in all cases: cell-based
One assay has as its system RSV strain A2. In words: RSV HEp-2 EC50 (infectious cytopathic cell protection assay). To be noted: HEp-2 cells, RSV A2, 4 days, read-out: RSV HEp-2 EC50. In short, it runs like this: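 Percent inhibition of RSV-induced cytopathic effect came from remaining cell viability (CellTiter-Glo luminescence) after 4 days at 37° C. Compounds in 3-fold serial dilutions were exposed to an infectious mix of titered A2 virus and HEp-2 cells at 50,000/ml, with 0% and 100% inhibition control standards.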

Another assay concerns RSV A2. As to the kind of experiment: RSV NHBE EC50 (RSV A2 antiviral assay in normal human bronchial epithelial cells). To be noted: NHBE cells, RSV A2, 4 days, read-out: RSV NHBE EC50.
The subject of a further assay is HRV16. In words: HRV16 HELA EC50 (cytopathic effect in H1-HeLa cells). The method in brief: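 Read-out is luminescent cell viability (CellTiter-Glo) after 96 h of infection at 33 °C, scaled between uninfected and infected-untreated wells. Before infection with titrated virus, compounds went onto H1-HeLa cells as triplicate 3-fold dilution series.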
The next assay relates to DENV2 replicon. As to the kind of experiment: DENV-2 Huh-7 Rep EC50 (replicon luminescence). Particulars: read-out: DENV-2 Huh-7 Rep EC50. In short, it runs like this: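 EC50 derived from luminescence dose-response, normalised to DMSO-only 0% inhibition wells, after 1.5 h with EnduRen substrate. Compounds were first exposed for 48 h at 37° C to DENV2 replicon Huh-7 cells (5,000/well).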
In general terms: In antiviral work, replicon cells carry a viral genome segment that copies itself.

The mark [1] stands for this setting: human respiratory syncytial virus, HEp-2, 96 h.
Where [2] appears, read: human respiratory syncytial virus, NHBE, 96 h.
Where [3] appears, read: 96 h, H1-HeLa cells, 33° C., read-out: HRV16 HELA EC50.
The mark [4] stands for this setting: Dengue virus, DENV2, Huh-7, 48 h, Huh-7 replicon cells, 48 hours.
Setting [5] is: human respiratory syncytial virus, 96 h.
[6] abbreviates: H1-HeLa cells, 96 h, 33° C.; read-out: HRV16 HELA EC50.
The mark [7] stands for this setting: Dengue virus, DENV2, Huh-7, 48 h.

SMILES strings stand for the structures. Like-named read-outs stand apart in the source and are kept apart here.

In general, EC50 refers to the concentration at which the effect is half-maximal. For the compound `C[C@H](N[P@](=O)(OC[C@@]1(C#N)O[C@@H](c2ccc3c(N)ncnn23)[C@H](O)[C@@H]1O)Oc1ccccc1)C(=O)O[C@H]1CC[C@H](C(C)(C)C)CC1` (single isomer, unassigned) [Example 22], the EC50 in the assay on RSV strain A2 (setting [1]) is 103 nM; with RSV A2 (setting [2]) it was 36 nM; in the assay on HRV16 (setting [3]) it was 200 nM; with DENV2 replicon (setting [4]), 5750 nM.

For the compound `C[C@H](NP(=O)(OC[C@@]1(C#N)O[C@@H](c2ccc3c(N)ncnn23)[C@H](O)[C@@H]1O)Oc1ccccc1)C(=O)OCC1CC1` (mixture of isomers) [Example 8, (2S)-cyclopropylmethyl 2-(((((2R,3S,4R,5S)-5-(4-aminopyrrolo[2,1-f][1,2,4]triazin-7-yl)-2-cyano-3,4-dihydroxytetrahydrofuran-2-yl)methoxy)(phenoxy)phosphoryl)amino)propanoate], the EC50 with RSV strain A2 (setting [1]) came to 182 nM; in the assay on RSV A2 (setting [2]), 351 nM; in the assay on HRV16 (setting [3]) it was 472 nM; in the assay on DENV2 replicon (setting [4]), 37300 nM.

With `C[C@H](N[P@](=O)(OC[C@@]1(C#N)O[C@@H](c2ccc3c(N)ncnn23)[C@H](O)[C@@H]1O)Oc1ccccc1)C(=O)O[C@H]1CC[C@H](C(F)(F)F)CC1` (single isomer, unassigned) [Example 18], the EC50 was 114 nM in the assay with RSV strain A2 (setting [1]), 91 nM with RSV A2 (setting [2]), 212 nM in the assay on HRV16 (setting [3]) and 12300 nM in the assay on DENV2 replicon (setting [4]).

As to `CCCCCCOC(=O)[C@H](C)NP(=O)(OC[C@@]1(C#N)O[C@@H](c2ccc3c(N)ncnn23)[C@H](O)[C@@H]1O)Oc1ccccc1` (stereo partly drawn) [Example 192, hexyl ((((2R,3S,4R,5S)-5-(4-aminopyrrolo[2,1-f][1,2,4]triazin-7-yl)-2-cyano-3,4-dihydroxytetrahydrofuran-2-yl)methoxy)(phenoxy)phosphoryl)-L-alaninate], the 50% effective concentration (EC50) in the assay on RSV strain A2 (setting [1]) is 194 nM; in the assay with RSV A2 (setting [2]), 21 nM; with HRV16 (setting [3]), 342 nM; in the assay on DENV2 replicon (setting [4]), 15900 nM.

Regarding `CCCCCCCCCCCCCCCCCCOC[C@H](COP(=O)(O)OC[C@@]1(C#N)O[C@@H](c2ccc3c(N)ncnn23)[C@H](O)[C@@H]1O)OCc1ccccc1` [Example 96, ((2R,3S,4R,5S)-5-(4-aminopyrrolo[2,1-f][1,2,4]triazin-7-yl)-2-cyano-3,4-dihydroxytetrahydrofuran-2-yl)methyl ((R)-2-(benzyloxy)-3-(octadecyloxy)propyl) hydrogen phosphate], the EC50 was 254 nM in the assay on RSV strain A2 (setting [5]), 441 nM with RSV A2 (setting [5]), 9350 nM in the assay on HRV16 (setting [6]) and more than 100000 nM in the assay on DENV2 replicon (setting [7]).

Take `CCC(CC)COC(=O)[C@H](C)N[P@](=O)(OC[C@@]1(C#N)O[C@@H](c2ccc3c(N)ncnn23)[C@H](O)[C@@H]1O)Oc1ccccc1` (single isomer, unassigned) [Example 25]: the EC50 in the assay on RSV strain A2 (setting [1]) turned out to be 26 nM; with RSV A2 (setting [2]), 127 nM; in the assay on HRV16 (setting [3]), 135 nM; with DENV2 replicon (setting [4]), 2860 nM.

Take `CCCCCCCCCCCCOC(=O)[C@H](C)NP(=O)(OC[C@@]1(C#N)O[C@@H](c2ccc3c(N)ncnn23)[C@H](O)[C@@H]1O)Oc1ccccc1` (stereo partly drawn) [Example 191, dodecyl ((((2R,3S,4R,5S)-5-(4-aminopyrrolo[2,1-f][1,2,4]triazin-7-yl)-2-cyano-3,4-dihydroxytetrahydrofuran-2-yl)methoxy)(phenoxy)phosphoryl)-L-alaninate]: the concentration giving a half-maximal response (EC50) in the assay with RSV strain A2 (setting [1]) was 2380 nM; with RSV A2 (setting [2]), 35 nM; in the assay with HRV16 (setting [3]) it was 3400 nM; in the assay with DENV2 replicon (setting [4]), 61300 nM.

On to `C[C@H](NP(=O)(OC[C@@]1(C#N)O[C@@H](c2ccc3c(N)ncnn23)[C@H](O)[C@@H]1O)Oc1cccc2ccccc12)C(=O)OC1CCCCC1` (stereo partly drawn) [Example 203, cyclohexyl ((((2R,3S,4R,5S)-5-(4-aminopyrrolo[2,1-f][1,2,4]triazin-7-yl)-2-cyano-3,4-dihydroxytetrahydrofuran-2-yl)methoxy)(naphthalen-1-yloxy)phosphoryl)-L-alaninate], for which the EC50 with RSV strain A2 (setting [1]) came out at 31 nM; in the assay on RSV A2 (setting [2]) it was 18 nM; in the assay with HRV16 (setting [3]), 72 nM; in the assay on DENV2 replicon (setting [4]), 4460 nM.

On to `CCCCCCCCCCCC(=O)OCCNP(=O)(OC[C@@]1(C#N)O[C@@H](c2ccc3c(N)ncnn23)[C@H](O)[C@@H]1O)Oc1ccccc1` (mixture of isomers) [Example 181, 2-(((((2R,3S,4R,5S)-5-(4-aminopyrrolo[2,1-f][1,2,4]triazin-7-yl)-2-cyano-3,4-dihydroxytetrahydrofuran-2-yl)methoxy)(phenoxy)phosphoryl)amino)ethyl dodecanoate], for which the EC50 in the assay with RSV strain A2 (setting [1]) was determined as 8 nM; in the assay with RSV A2 (setting [2]) it was 43 nM; in the assay on HRV16 (setting [3]) it was 35 nM; in the assay on DENV2 replicon (setting [4]) it was 5250 nM.

With `CCCCCCCCCCCCCCCCOCCCOP(=O)(O)OC[C@@]1(C#N)O[C@@H](c2ccc3c(N)ncnn23)[C@H](O)[C@@H]1O` [Example 149, ((2R,3S,4R,5S)-5-(4-aminopyrrolo[2,1-f][1,2,4]triazin-7-yl)-2-cyano-3,4-dihydroxytetrahydrofuran-2-yl)methyl (3-(hexadecyloxy)propyl) hydrogen phosphate], the EC50 with RSV strain A2 (setting [5]) is 925 nM; with RSV A2 (setting [5]), more than 891 nM; in the assay with HRV16 (setting [6]) it was more than 50000 nM; in the assay with DENV2 replicon (setting [7]), more than 50000 nM.

As for `CC[C@H](NP(=O)(OC[C@@]1(C#N)O[C@@H](c2ccc3c(N)ncnn23)[C@H](O)[C@@H]1O)Oc1ccccc1)C(=O)OC1CCCCC1` (mixture of isomers) [Example 103, (2S)-cyclohexyl 2-(((((2R,3S,4R,5S)-5-(4-aminopyrrolo[2,1-f][1,2,4]triazin-7-yl)-2-cyano-3,4-dihydroxytetrahydrofuran-2-yl)methoxy)(phenoxy)phosphoryl)amino)butanoate], the EC50 with RSV strain A2 (setting [1]) is 938 nM; in the assay with RSV A2 (setting [2]) it was 548 nM; in the assay with HRV16 (setting [3]) it was 2440 nM; in the assay on DENV2 replicon (setting [4]), more than 50000 nM.

For the compound `C[C@H](NP(=O)(OC[C@@]1(C#N)O[C@@H](c2ccc3c(N)ncnn23)[C@H](O)[C@@H]1O)Oc1ccccc1)C(=O)OCC1CCCCC1` (single isomer, unassigned) [Example 248], the EC50 worked out at 26 nM in the assay on RSV strain A2; 2620 nM in the assay with RSV A2; 174 nM with HRV16 (setting [6]); 4720 nM with DENV2 replicon (Huh-7 replicon cells, 48 hours).
